Legend:
Alternaria brassicae = test: In vivo test of activity on Alternaria brassicae (crucifer black spot) on radish; conditions: preventive spray 24 h before inoculation
Protocol: In Vivo Test of Activity on Alternaria brassicae (Crucifer Black Spot)
(§1) An aqueous solution of the active material to be tested is prepared at a concentration of 2 g/l by grinding in solution 1 or solution 2:
(§2) • Water • Tween 80 diluted to 10% in water: 5 μl/mg of active material • Clay in a sufficient amount for active material+clay to equal 100 mg; Solution 2
(§3) Concentrated solution containing surfactants and adjuvants conventionally used: 200 μl/mg of active material.
(§4) The aqueous solution is diluted with water so as to obtain the desired concentration.
Radishes of the Pernot variety are sown in a 50/50 pozzolan/peat substrate and maintained at 18-22° C. The treatment is carried out by spraying the aqueous suspension. The untreated control plants are sprayed with water. 24 hours after treatment, the plants are inoculated by spraying a solution of Alternaria brassicae spores (40 000 spores/ml) originating from a 12-day culture.
The radish plants are then maintained at 18-20° C. in a humid atmosphere. The effectiveness of the products is evaluated relative to the control plants after seven to eight days of incubation.
(§5) The effectiveness of the molecules is estimated, at 500 g/ha, 250 g/ha or 330 ppm, by the percentage of control relative to untreated plants. Under these conditions, good effectiveness is defined as more than 80% effectiveness. Average effectiveness is defined as an effectiveness between 50 and 80%. Poor effectiveness is defined as an effectiveness between 10 and 50% and zero effectiveness is defined as less than 10% effectiveness.

Pyrenophora teres = test: In vivo test of activity on Pyrenophora teres (barley net blotch); conditions: 330 ppm, preventive spray 24 h before inoculation
Protocol: In Vivo Test of Activity on Pyrenophora teres (Barley Net Blotch)
as §1, §2, §3, §4
Barley plants of the Express variety are sown in a 50/50 pozzolan/peat substrate and maintained at 12° C. The treatment is carried out at the 1-leaf stage (10 cm) by spraying the aqueous suspension. The untreated control plants are sprayed with water.
24 hours after treatment, the plants are inoculated by spraying a solution of Pyrenophora teres spores (10 000 spores/ml) originating from a 10-day culture.
The barley plants are then maintained at 18° C. in a humid atmosphere. The effectiveness of the products is evaluated relative to the control plants after eight to fifteen days of incubation.
as §5

Botrytis cinerea = test: In vivo test of activity on Botrytis cinerea on cucumber; conditions: preventive spray 24 h before inoculation
Protocol: In Vivo Test of Activity on Botrytis cinerea on Cucumber
as §1, §2, §3, §4
Cucumbers of the Marketer variety are sown in a 50/50 pozzolan/peat substrate and maintained at 18-22° C. The treatment is carried out by spraying the aqueous suspension. The untreated control plants are sprayed with water.
24 hours after treatment, the plants are inoculated by spraying a solution of Botrytis cinerea spores (150 000 spores/ml) originating from a 15-day culture.
The cucumber plants are then maintained at 11-15° C. in a humid atmosphere. The effectiveness of the products is evaluated relative to the control plants after seven to eight days of incubation.
as §5

[1] = Botrytis cinerea, topical, read-out: effectiveness (percentage of control relative to untreated plants)

Compound	effectiveness (percentage of control relative to untreated plants) (Alternaria brassicae; 330 ppm)	effectiveness (percentage of control relative to untreated plants) (Pyrenophora teres)	further results
Cc1ccc(C(=O)NCCc2ncc(C(F)(F)F)cc2Cl)c(C)c1 [Compound A-61]	good to average	good to average	–
COc1ccc(C(=O)NCCc2ncc(C(F)(F)F)cc2Cl)c(OC)c1 [Compound A-83]	good to average	good to average	–
COc1cc(Cl)ccc1C(=O)NCCc1ncc(C(F)(F)F)cc1Cl [Compound A-87]	good to average	good to average	–
O=C(NCCc1ncc(C(F)(F)F)cc1Cl)c1ccccc1OC(F)(F)F [Compound A-89]	good to average	good to average	–
O=C(NCCc1ncc(C(F)(F)F)cc1Cl)c1ccc([N+](=O)[O-])cc1Cl [Compound A-96]	good to average	good to average	–
Cc1cc(F)ccc1C(=O)NCCc1ncc(C(F)(F)F)cc1Cl [Compound A-117]	good to average	good to average	–
O=C(NCCc1ncc(C(F)(F)F)cc1Cl)c1ccc(Cl)c(F)c1Cl [Compound A-125]	good to average	good to average	–
CS(=O)(=O)c1cc(Br)ccc1C(=O)NCCc1ncc(C(F)(F)F)cc1Cl [Compound A-133]	good to average	good to average	–
Cc1ccc(Br)c(C(=O)NCCc2ncc(C(F)(F)F)cc2Cl)c1 [Compound A-134]	good to average	good to average	–
CSc1cc(F)ccc1C(=O)NCCc1ncc(C(F)(F)F)cc1Cl [Compound A-140]	good to average	good to average	–
CSc1ccccc1C(=O)NCCc1ncc(C(F)(F)F)cc1Cl [Compound A-167]	good to average	good to average	–
N#Cc1ccccc1C(=O)NCCc1ncc(C(F)(F)F)cc1Cl [Compound A-170]	good to average	–	effectiveness (percentage of control relative to untreated plants) (Botrytis cinerea; 330 ppm): good to average
O=C(NCCc1ncc(C(F)(F)F)cc1Cl)c1cc(F)ccc1C(F)(F)F [Compound A-172]	–	–	effectiveness (percentage of control relative to untreated plants) (Botrytis cinerea; 330 ppm): good to average
O=C(NCCc1ncc(C(F)(F)F)cc1Cl)c1cc(F)ccc1Br [Compound A-175]	good to average	–	effectiveness (percentage of control relative to untreated plants) (Botrytis cinerea; 330 ppm): good to average
Cc1ccc(Cl)c(C(=O)NCCc2ncc(C(F)(F)F)cc2Cl)c1F [Compound A-182]	good to average	–	–
O=C(NCCc1ncc(C(F)(F)F)cc1Cl)c1cc(Br)ccc1I [Compound A-183]	good to average	–	–

Compound	effectiveness (percentage of control relative to untreated plants) (Alternaria brassicae; 330 ppm)	effectiveness (percentage of control relative to untreated plants) (Pyrenophora teres)	further results
Cc1ccc(Cl)c(C(=O)NCCc2ncc(C(F)(F)F)cc2Cl)c1 [Compound A-184]	good to average	–	–
O=C(NCCc1ncc(C(F)(F)F)cc1Cl)c1cc(I)ccc1Cl [Compound A-185]	good to average	–	–
Cc1ccc(F)cc1C(=O)NCCc1ncc(C(F)(F)F)cc1Cl [Compound A-186]	good to average	–	–
O=C(NCCc1ncc(C(F)(F)F)cc1Cl)c1cc(Cl)ccc1I [Compound A-188]	good to average	–	–
COc1cc(I)c(C(=O)NCCc2ncc(C(F)(F)F)cc2Cl)cc1OC [Compound A-189]	good to average	–	–
Cc1cccc(C(=O)NCCc2ncc(C(F)(F)F)cc2Cl)c1N [Compound A-194]	good to average	–	–
O=C(NCCc1c(Cl)cc(C(F)(F)F)c[n+]1[O-])c1ccccc1C(F)(F)F [Compound B-1]	good to average	good to average	–
O=C(NCCc1ncc(C(F)(F)F)cc1Cl)c1c(Cl)cccc1Cl [N-{2-[3-chloro-5-(trifluoromethyl)-2-pyridinyl]-ethyl}-2,6-dichlorobenzamide, reference compound]	poor (Poor effectiveness is defined as an effectiveness between 10 and 50%)	–	effectiveness (percentage of control relative to untreated plants) (Alternaria brassicae; 250 g/ha): zero (zero effectiveness is defined as less than 10% effectiveness); pest or weed control at 250 g/ha (Botrytis cinerea; [1]): < 10%; pest or weed control at 330 ppm (Botrytis cinerea; Botrytis cinerea, topical, 330 ppm, read-out: effectiveness (percentage of control relative to untreated plants)): < 10%
CCNC(=O)C(Cc1ncc(C(F)(F)F)cc1Cl)NC(=O)c1ccccc1 (centres unmarked) [compound 304, N-{1-ethylcarbamoyl-2-[3-chloro-5-(trifluoromethyl)-2-pyridinyl]ethyl}-benzamide, reference compound]	–	–	pest or weed control at 250 g/ha (Botrytis cinerea; [1]): < 10%
CCNC(=O)C(Cc1ncc(C(F)(F)F)cc1Cl)NC(=O)c1ccc(Cl)cc1 (centres unmarked) [compound 306, N-{1-ethylcarbamoyl-2-[3-chloro-5-(trifluoromethyl)-2-pyridinyl]ethyl}-4-chlorobenzamide, reference compound]	–	–	pest or weed control at 250 g/ha (Botrytis cinerea; [1]): < 10%
CCNC(=O)C(Cc1ncc(C(F)(F)F)cc1Cl)NC(=O)c1cccc([N+](=O)[O-])c1 (centres unmarked) [compound 307, N-{1-ethylcarbamoyl-2-[3-chloro-5-(trifluoromethyl)-2-pyridinyl]ethyl}-3-nitrobenzamide, reference compound]	–	–	effectiveness (percentage of control relative to untreated plants) (Alternaria brassicae; 250 g/ha): zero (zero effectiveness is defined as less than 10% effectiveness); pest or weed control at 250 g/ha (Botrytis cinerea; [1]): < 10%
CCNC(=O)C(Cc1ncc(C(F)(F)F)cc1Cl)NC(=O)c1ccccc1Br (centres unmarked) [compound 310, N-{1-ethylcarbamoyl-2-[3-chloro-5-(trifluoromethyl)-2-pyridinyl]ethyl}-2-bromobenzamide, reference compound]	–	–	pest or weed control at 250 g/ha (Botrytis cinerea; [1]): < 10%
CNC(=O)C(Cc1ncc(C(F)(F)F)cc1Cl)NC(=O)c1ccccc1 (centres unmarked) [compound 314, N-{1-methylcarbamoyl-2-[3-chloro-5-(trifluoromethyl)2-pyridinyl]ethyl}-benzamide, reference compound]	–	–	pest or weed control at 250 g/ha (Botrytis cinerea; [1]): < 10%
CNC(=O)C(Cc1ncc(C(F)(F)F)cc1Cl)NC(=O)c1ccc(OC)cc1 (centres unmarked) [compound 315, N-{1-methylcarbamoyl-2-[3-chloro-5-(trifluoromethyl)-2-pyridinyl]ethyl}-4-methoxybenzamide, reference compound]	–	–	pest or weed control at 250 g/ha (Botrytis cinerea; [1]): < 10%
CNC(=O)C(Cc1ncc(C(F)(F)F)cc1Cl)NC(=O)c1ccc(-c2ccccc2)cc1 (centres unmarked) [compound 316, N-{1-methylcarbamoyl-2-[3-chloro-5-(trifluoromethyl)-2-pyridinyl]ethyl}-4-phenylbenzamide, reference compound]	–	–	effectiveness (percentage of control relative to untreated plants) (Alternaria brassicae; 250 g/ha): poor (Poor effectiveness is defined as an effectiveness between 10 and 50%); pest or weed control at 250 g/ha (Botrytis cinerea; [1]): < 10%
